Test results from patent US8388982B2, “Photo-induced damage mitigating agents and preparation and methods of use thereof” (priority 2008, dated 2013).

What was measured:
[1] = Brightness of Alexa A-647 dye; conditions: purified fractions
polymerase = experiment: Sequencing-by-incorporation readlength; type: biochemical; conditions: for sequencing readlength: purified fractions, Example 7; for readlengths compared with 6-hydroxy-2,5,7,8-tetramethylchroman-2-carboxylic acid / no PIDMA: single-molecule, real-time sequencing reactions, FIG. 17
Text: In yet another aspect, the present invention is directed to illuminated reactions for single molecule analysis, including sequencing of nucleic acids by observing incorporation of nucleotides into a nascent nucleic acid sequence during template-directed polymerase-based synthesis. Such methods, generally referred to as “sequencing-by-incorporation,” involve the observation of the addition of nucleotides or nucleotide analogs in a template-dependent fashion in order to determine the sequence of the template strand. See, e.g., U.S. Pat. Nos. 6,780,591, 7,037,687, 7,344,865, 7,302,146, and Eid, et al. (2009) Science 323:133-138, all of which are incorporated herein by reference in their entireties for all purposes. Processes for performing this detection include the use of fluorescently labeled nucleotide analogs within a confined observation region, e.g., within a nanoscale well and/or tethered, either directly or indirectly to a surface, By using excitation illumination (i.e., illumination of an appropriate wavelength to excite the fluorescent label and induce a detectable signal), the fluorescently labeled bases can be detected as they are incorporated into the nascent strand, thus identifying the nature of the incorporated base, and as a result, the complementary base in the template strand.
One particularly preferred aspect of the invention is in conjunction with the sequencing by incorporation of nucleic acids within an optical confinement, such as a zero mode waveguide, Such reactions involve observation of an extremely small reaction volume in which one or only a few polymerase enzymes and their fluorescent substrates may be present. Zero mode waveguides, and their use in sequencing applications are generally described in U.S. Pat. Nos. 6,917,726 and 7,033,764, and preferred methods of sequencing by incorporation are generally described in Published U.S. Patent Application No. 2003-0044781, the full disclosures of which are incorporated herein by reference in their entireties for all purposes, and in particular for their teachings regarding such sequencing applications and methods. Briefly, arrays of zero mode waveguides (“ZMWs”), configured in accordance with the present invention may be employed as optical confinements for single molecule analytical reactions, e.g., for nucleic acid (e.g., DNA, RNA) sequence determination. In particular, as noted above, these ZMWs provide extremely small observation volumes at or near the transparent substrate surface, also termed the “base” of the ZMW. A nucleic acid synthesis complex, e.g., template sequence, polymerase, and primer, which is immobilized at the base of the ZMW, may then be specifically observed during synthesis to monitor incorporation of nucleotides in a template dependent fashion, and thus provide the identity and sequences of nucleotides in the template strand. This identification is typically accomplished by providing detectable label groups, such as fluorescent labeling molecules, on the nucleotides. In some instances, the labeled nucleotides terminate primer extension, allowing a “one base at a time” interrogation of the complex. If, upon exposure to a given labeled base, a base is incorporated, its representative fluorescent signal may be detected at the base of the ZMW. If no signal is detected, then the base was not incorporated and the complex is interrogated with each of the other bases, in turn. Once a base is incorporated, the labeling group is removed, e.g., through the use of a photocleavable linking group, and where the label was not the terminating group, a terminator, upon the 3′ end of the incorporated nucleotide, may be removed prior to subsequent interrogation.
Experiments were performed to test the performance of pure 6-hydroxy-2,5,7,8-tetramethylchroman-2-carboxylic acid against various mixtures of 6-hydroxy-2,5,7,8-tetramethylchroman-2-carboxylic acid and derivatives thereof. […]

[2] = Saturation point of solutions for photomodification; type: physicochemical; conditions: solutions subjected to photomodification
Description: Of course, the amount of time for UV irradiation and room light exposure can be adjusted, as can the concentration of the 6-hydroxy-2,5,7,8-tetramethylchroman-2-carboxylic acid solution to be treated. For example, one to twenty-four hours of UV irradiation have been employed, as have 18 to 36 hours room light exposure. In general, and as shown in FIG. 9 described above, increasing UV exposures increase the ability of the mixture to effectively mitigate photo-induced damage, although there was no significant difference between the three, six, and 24 hour exposures (FIG. 9). Further, the solutions of 6-hydroxy-2,5,7,8-tetramethylchroman-2-carboxylic acid subjected to photomodification were typically of a concentration of 95-100 mM, which is near the saturation point for the compound. However, treatment of more or less concentrated solutions in contemplated and known chemical methods may be employed to increase the solubility of the compound prior to treatment.

[3] = Fluorescence correlation spectroscopy (FCS) triplet-state quenching; conditions: Alexa568 in low oxygen
Description: Fluorescence correlation spectroscopy (FCS) is a commonly used technique for experimentally characterizing the dynamics of fluorescent species that was initially introduced in the early 1970's (Magde, D., et al, (1972) Phys. Rev. Lett. 29: 705-708). In FCS, light is focused on a sample in a very small detection volume, and the measured fluorescence intensity fluctuations (due to diffusion, physical or chemical reactions, aggregation, etc.) are analyzed using the temporal autocorrelation. Further details are provided, e.g., in Ehrenberg, M. et al. (1974) Chem Phys 4: 390-401; Elson, E. L., et al. (1974) Biopolymers 13: 1-27; Magde, D., et al. (1974) Biopolymers 13: 29-61; Thompson, N. L. (1991) Topics in Fluorescence Spectroscopy Techniques, Vol. 1, ed. J. R. Lakowicz (New York: Plenum) pp. 337-378; Hess, et al. (2002) Biochemistry 41: 697; and Krichevsky, O., et al. (2002) Rep. Prog. Phys. 65: 251-297.
FCS experiments using the fluorophore Alexa568 in low oxygen were used to monitor the amount of the dye triplet state upon excitation over time as a measure of triplet-state quenching by 6-hydroxy-2,5,7,8-tetramethylchroman-2-carboxylic acid and derivatives thereof. Briefly, these experiments were performed on a confocal microscope setup (Olympus IX71 with water-immersion objective UPlanSApo, 60×) using a single line laser excitation (532 nm) at 0.4-mW intensity and two single photon avalanche detectors (SPAD detectors; Perkin Elmer, Waltham, Mass.). The FCS measurements were done in a reaction buffer containing 50 mM ACES, pH 7.1; 75 mM potassium acetate; and 5 mM DTT. A protocatechuic acid/protocatechuate-3,4-dioxygenase (PCA/PCD) oxygen scavenging system (see, e.g., Aitken, et al. (2007) “An Oxygen Scavenging System for Improvement of Dye Stability in Single-Molecule Fluorescence Experiments,” Biophys J. 94:1826-1835) was included, as well. Correlation curves were generated and recorded by a FLEX digital photon correlator (Correlator.com; Bridgewater, N.J.), and analyzed using Origin8.0 (OriginLabs; Northampton, Mass.).
In these experiments, the photo-induced damage mitigating ability of the preparation of photomodified 6-hydroxy-2,5,7,8-tetramethylchroman-2-carboxylic acid (described above), an aged 6-hydroxy-2,5,7,8-tetramethylchroman-2-carboxylic acid solution (stored at −20° C. for ˜1 year), a freshly prepared 6-hydroxy-2,5,7,8-tetramethylchroman-2-carboxylic acid solution (prepared according to manufacturer's instructions), and fresh preparations treated with various UV exposure regimes were compared. The results are plotted as autocorrelation curves in FIG. 9, and the amplitude of the “hump” at around one microsecond (0.001 millisecond (ms)) to a few microseconds indicates the triplet fraction of the dye, so the smaller the amplitude, the better the triplet quencher. […] The aged solution was the second best performer with an autocorrelation amplitude of ˜0.07 at a lag time of 0.001 ms.
The effectiveness of the photomodified solutions and the purified Fraction A and Fraction B as triplet-state quenchers/radical scavengers was tested by fluorescence correlation spectroscopy (FCS) using Alexa568 in low oxygen, as described above in Example 1. Two different intensity of excitation settings, 0.2 mW and 0.4 mW, were used for power dependence.

[4] = Photolysis of Fraction A to Fraction B under UV, followed by reverse phase HPLC; type: physicochemical
Description: Fraction A was further converted to Fraction B by photolysis in a separate experiment. Specifically, purified Fraction A (reverse phase HPLC peak migration time of 9.791 minutes; FIG. 12A) was subjected to UV irradiation in water for one hour to produce Fraction B (reverse phase HPLC peak migration time of 14.891 minutes; FIG. 12B).

[5] = Example 3, FIG. 11A, 0.2 mW intensity of excitation
[6] = Example 3, FIG. 11B, 0.4 mW intensity of excitation

| SMILES | brightness of Alexa A-647 dye [1] | sequencing readlength (polymerase) | readlengths compared with 6-hydroxy-2,5,7,8-tetramethylchroman-2-carboxylic acid / no PIDMA (polymerase) | autocorrelation amplitude at a lag time of 0.001 ms [3, 5] | autocorrelation amplitude at a lag time of 0.001 ms [3, 6] | further results |
| --- | --- | --- | --- | --- | --- | --- |
| CC1=C(C)C(=O)C2(CCC(C)(C(=O)O)O2)C(C)(O)C1=O (single isomer, unassigned) [fraction 7, 10-hydroxy-2,7,8,10-tetramethyl-6,9-dioxo-1-oxaspiro[4.5]dec-7-ene-2-carboxylic acid] | increase the brightness | significantly increase sequencing readlength | longer readlengths |  |  |  |
| Cc1c(C)c2c(c(C)c1O)CCC(C)(C(=O)O)O2 (single isomer, unassigned) [6-hydroxy-2,5,7,8-tetramethylchroman-2-carboxylic acid, reference compound] |  |  | surprisingly similar to having no PIDMA present at all |  |  | concentration near the saturation point [2]: 95000 to 100000 µM; proportion of sequencing reactions that attained a readlength of at least one-fifth the maximum (polymerase; 0.5 mM, FIG. 13): about 10%; proportion of sequencing reactions that attained a readlength of at least one-tenth of the maximum readlength (polymerase; 0.5 mM, FIG. 13): 60%; sequencing reactions that attained a readlength of at least 30% of the maximum (polymerase; 0.5 mM, FIG. 13): very few; autocorrelation amplitude at a lag time of 0.001 ms ([3]; Example 1, FIG. 9, 532 nm, 0.4 mW, smaller amplitude = better triplet quencher): ~0.2 |
| CC1=C(C)C(=O)C2(CCC(C)(C(=O)O)O2)C(C)(O)C1=O (single isomer, unassigned) [fraction 5, 10-hydroxy-2,7,8,10-tetramethyl-6,9-dioxo-1-oxaspiro[4.5]dec-7-ene-2-carboxylic acid] | increase the brightness | significantly increase sequencing readlength | longer readlengths |  |  |  |
| CC(=O)CCC1=C(C)C(=O)C(C)=C(C)C1=O (single isomer, unassigned) [Fraction B, 2,3,5-trimethyl-6-(3-oxobutyl)-1,4-benzoquinone] |  |  |  | ~0.06 | ~0.04 |  |
| CC1=C(C)C(=O)C(CCC(C)(O)C(=O)O)=C(C)C1=O (single isomer, unassigned) [Fraction A, 2-hydroxy-2-methyl-4-(2,4,5-trimethyl-3,6-dioxocyclohexa-1,4-dienyl)butanoic acid] |  |  | to a lesser extent | ~0.065 | ~0.043 | conversion from Fraction A to Fraction B ([4]; UV irradiation in water for one hour): 80%; time until conversion is essentially complete ([4]; under a portable UV lamp): about four; half-life ([4]; water under UV irradiation, UV irradiation in water, read-out: half-life of conversion to Fraction B): 26 min; readlength compared with fresh 6-hydroxy-2,5,7,8-tetramethylchroman-2-carboxylic acid (polymerase; 0.05 mM purified Fraction A with 0.5 mM 6-hydroxy-2,5,7,8-tetramethylchroman-2-carboxylic acid, FIG. 13): much longer readlengths; readlength compared with fresh 6-hydroxy-2,5,7,8-tetramethylchroman-2-carboxylic acid (polymerase; 0.10 mM purified Fraction A with 0.5 mM 6-hydroxy-2,5,7,8-tetramethylchroman-2-carboxylic acid, FIG. 13): much longer readlengths; readlength compared with fresh 6-hydroxy-2,5,7,8-tetramethylchroman-2-carboxylic acid (polymerase; 0.25 mM purified Fraction A with 0.5 mM 6-hydroxy-2,5,7,8-tetramethylchroman-2-carboxylic acid, FIG. 13): much longer readlengths |
